Columns and labels:
[1] = system: Adenosine receptor A2a (Bos taurus); experiment: Percent inhibition of [3H]CGS-21680 binding to A2A adenosine receptor of bovine striatal membrane at 10 uM
Adenosine receptor A1 = molecular target: T1, Adenosine receptor A1 (Bos taurus, UniProt P28190); experiment: Displacement of [3H]CHA from Adenosine A1 receptor in bovine cortical membrane expressed as Ki; format: cell membranes
T1 sequence (P28190 whole entry): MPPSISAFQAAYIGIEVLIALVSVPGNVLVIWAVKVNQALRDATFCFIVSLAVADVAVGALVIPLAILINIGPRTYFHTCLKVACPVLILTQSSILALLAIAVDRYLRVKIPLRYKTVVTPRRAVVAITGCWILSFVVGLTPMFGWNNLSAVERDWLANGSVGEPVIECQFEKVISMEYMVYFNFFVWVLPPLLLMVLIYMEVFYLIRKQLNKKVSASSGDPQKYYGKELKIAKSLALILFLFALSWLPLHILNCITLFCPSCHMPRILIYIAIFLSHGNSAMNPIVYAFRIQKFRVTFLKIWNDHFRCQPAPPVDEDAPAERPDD

[2] = molecular target: T2, Adenosine receptor A1 (Bos taurus) (UniProt P28190); experiment: Percent inhibition of [3H]CHA binding at Adenosine A1 receptor in bovine cortical membrane at 10 uM; format: cell membranes
T2 sequence (whole entry): T1 sequence (P28190 whole entry)

[3] = molecular target: Adenosine receptor A2a (Bos taurus); experiment: Displacement of [3H]CGS-21680 binding at A2A adenosine receptor in bovine striatal membrane

| SMILES | inhibition [1] [%] | Ki (Adenosine receptor A1) [µM] | inhibition [2] [%] | Ki [3] [µM] |
| --- | --- | --- | --- | --- |
| CCCCNc1c(C(=O)OCC)cnc2c1cnn2CC(Cl)c1ccccc1 (stereo not drawn) | 3 | 4.1 |  |  |
| CCOC(=O)c1cnc2c(cnn2CC(Cl)c2ccccc2)c1N1CCN(C)CC1 (stereo not drawn) |  |  | 22 | 2.14 |
| CCOC(=O)c1cnc2c(cnn2CC(Cl)c2ccccc2)c1N1CCCCCC1 (stereo not drawn) | 22 |  | 35 |  |
| CCOC(=O)c1cnc2c(cnn2CC(Cl)c2ccccc2)c1NC(C)(C)C (stereo not drawn) |  | 4.8 |  |  |
| CCOC(=O)c1cnc2c(cnn2CC(Cl)c2ccccc2)c1N1CCCCC1 (stereo not drawn) | 23 |  | 41 |  |
| CCOC(=O)c1cnc2c(cnn2CC(Cl)c2ccccc2)c1N1CCOCC1 (stereo not drawn) | 0 | 0.47 |  |  |
| CCOC(=O)c1cnc2c(cnn2CC(Cl)c2ccccc2)c1N1CCNCC1 (stereo not drawn) | 6 |  | 0 |  |

Continued by falling Ki (Adenosine receptor A1), values first:

| inhibition [1] [%] | Ki (Adenosine receptor A1) [µM] | inhibition [2] [%] | Ki [3] [µM] | SMILES |
| --- | --- | --- | --- | --- |
| 11 | 0.348 |  |  | CCOC(=O)c1cnc2c(cnn2CC(Cl)c2ccccc2)c1Nc1ccccc1 (stereo not drawn) |
|  | 0.151 |  |  | CCOCCNc1c(C(=O)OCC)cnc2c1cnn2CC(Cl)c1ccccc1 (stereo not drawn) |
| 0 | 0.139 |  |  | CCOC(=O)c1cnc2c(cnn2CC(Cl)c2ccccc2)c1NCc1ccccc1 (stereo not drawn) |
| 10 | 0.112 |  |  | CCOC(=O)c1cnc2c(cnn2CC(Cl)c2ccccc2)c1NC1CC1 (stereo not drawn) |
|  | 0.1 |  |  | CCCNc1c(C(=O)OCC)cnc2c1cnn2CC(Cl)c1ccccc1 (stereo not drawn) |
|  | 0.0982 |  |  | CCOC(=O)c1cnc2c(cnn2CC(Cl)c2ccccc2)c1N1CCCC1 (stereo not drawn) |
|  | 0.05 |  |  | CCOC(=O)c1cnc2c(cnn2CC(Cl)c2ccccc2)c1NCCc1ccccc1 (stereo not drawn) |
